Experiments:
cerebral cortex = conditions: normal persons; Saarma J. et al. 1975; cited from earlier work
Sprague Dawley rats [1] = assay: probe test after Morris water maze learning (platform removed); format: in vivo
Protocol: (§1) In the Morris water maze test, each of the test animals was given four swimming trials per session per day for 4-5 days. When the escape latency of the test animal, that is, the time for the test animal to reach a hidden platform 2 cm below the surface of water, became shorter than 10±2 seconds during the repeat of the learning sessions, a probe test was performed after 24 hours one time for 60 seconds without the platform. The probe test was performed by removing the platform from the swimming pool and observing the swimming behavior of the test animals. In the probe test, as measures of spatial working memory, the retention time and movement distance of the test animals in the same area of a quadrant region including the position in which the platform was present during the first learning period were analyzed and compared with those of the control group.
At 5 days, that is, after 24 hours when the escape time for the learned test animals to reach the platform became an average of 10±2 seconds, the platform was removed and a probe test was performed one time. The test results are shown in FIG. 1(b) to analyze an improvement in learning and memory for spatial recognition functions.

Sprague Dawley rats [2] = assay: Morris water maze test (escape time to hidden platform); format: in vivo
Protocol: In the Morris water maze test, each of the test animals was given four swimming trials per session per day for 4-5 days. When the escape latency of the test animal, that is, the time for the test animal to reach a hidden platform 2 cm below the surface of water, was shortened to about 10±2 seconds during the repeat of the learning sessions, a probe test was performed after 24 hours one time for 60 seconds without the platform.
In the present invention, the effect of formulated drugs on the improvement of learning and memory for spatial recognition of a normal test animal group (Sprague Dawley rats) was tested by administering the drugs to the test animals orally or through drinking water for 2, 3 or 4 weeks and performing a Morris water maze test at 2, 3 or 4 weeks after the drug administration.
as §1
Starting from 4 weeks of the administration, a Morris water maze test was performed at a given time point daily four times per day for 4 days to analyze the effect of each composition on the improvement of learning and memory for spatial recognition function of the test animals. As the test results are shown in FIG. 1(a) showing the escape time of each group.

ischemia-induced brain = conditions: administered after hypoxia; Ann. Thorac. Surg. 1994; cited from earlier work
[3] = administered for 1 week; Jpn J Psychiatry Neurol 1991; cited from earlier work
[4] = fumaric acid 100 mg/kg with Tween80 100 mg/kg (FA100Tw100 group), drinking water 4 weeks, vs Tw50 control

Structure (SMILES): O=CCCC(=O)O [SSA, succinic semialdehyde, reference compound]
- excitability of the cerebral cortex (cerebral cortex): enhances the excitability of the cerebral cortex

Structure (SMILES): O=C(O)/C=C/C(=O)O [fumaric acid]
- improvement of working memory (Sprague Dawley rats [1]; [4]): significant (p<0.05) effect on the improvement of both learning and working memory
- improvement of learning (escape time) (Sprague Dawley rats [2]; [4]): significant (p<0.05) effect on the improvement of both learning and working memory
- effect on the improvement of learning and memory (Sprague Dawley rats [2]; fumaric acid given with Tween80 (FA50Tw50, FA100Tw100 groups) through drinking water 4 weeks, vs Tw50 control): dose-dependent effect on the improvement of learning and memory
- nerve protective effect (ischemia-induced brain): nerve protective effects

Structure (SMILES): O=C(O)CCC(=O)O [SS, sodium succinate]
- excitability of the cerebral cortex (cerebral cortex): stabilizes the excitability of the cerebral cortex

Structure (SMILES): CN(C)CCCN1c2ccccc2CCc2ccccc21 [imipramine]
- antidepressant effect [3]: significant antidepressant effect

Structure (SMILES): O=C(O)CCC(=O)O [succinic acid]
- working memory in the probe test (Sprague Dawley rats [1]; succinic acid 100 mg/kg with Span80 200 mg/kg (SA100Sp200 group), drinking water 3 weeks, vs DW control): insignificant (P=0.089) improvement in working memory
- learning ability in the Morris water maze test (Sprague Dawley rats [2]; succinic acid 100 mg/kg with Span80 200 mg/kg (SA100Sp200 group), drinking water 3 weeks, session 4, P<0.001 vs DW control, Mann Whitney U test): significant increase in learning ability

— patent US20090047369A1, “Composition Comprising 4-Carbon Dicarboxlic Acids for Improvement of Memory Function” (Eubioslab Co., Ltd, priority 2006, published 2009)
